From patent US8188101B2 (AstraZeneca AB, priority 2008, dated 2012)

tested on: Aβ42 release; assay: Aβ release in cells stably expressing APPswe, Meso Scale Discovery electrochemiluminescence assay; assay type: cell-based, Human; conditions: HEK or SH-SY5Y cells stably expressing APPswe, 4-6 hours incubation with test compound
Method: The level of activity of the compounds on Aβ release was tested using the following method:
Compounds were diluted in 100% DMSO and stored at […] prior to use. Human Embryonic Kidney (HEK) or Human Neuroblastoma (SH-SY5Y) cell lines stably expressing APP with the Swedish mutation (APPswe) were cultured using Dulbecco's Modified Eagles medium (DMEM) supplied with […] glucose, Na-pyruvate and GlutaMAX with 10% FBS, 100 U/ml penicillin-streptomycin (PEST) respectively, 1× non-essential amino acids (NEAA), […] Hepes, 100 μg/ml Zeocine. Cells at about 80% confluence were washed with PBS, detached from culture flasks using 1× Trypsin/EDTA diluted in PBS, re-suspended in cell media and plated in 384-well poly-d-lysine coated cell culture plates at about 10000-15000 cells/well, in 25 μL cell media. Optionally, cryo-preserved cells (frozen and stored at −140° C. in 90% cell media and 10% DMSO) were thawed, washed and plated as above. Next the cells were incubated for 15-24 h at 37° C. and 5% CO2, after which cell medium was changed. Fresh medium containing test compound diluted ×200 from prepared compound plate was added to the cells before further incubation for 4-6 hours at 37° C. and 5% CO2. After incubation with test compound the amount of Aβ peptides, including Aβ42, Aβ40, Aβ39, Aβ38 and Aβ37, secreted to the cell medium was analyzed using the electrochemiluminescence assay technology from Meso Scale Discovery Technology, in combination with specific antibodies raised against the different Aβ peptides. Potential cytotoxic effects of the compounds were usually assayed by measuring the ATP content (ViaLight) from cell lysate.

pIC50 | Compound
6.2 | Cc1nccn1-c1ccc(Nc2nc3c(c(C(C)c4ccccc4)n2)CN(C)CC3)cc1 (single isomer, unassigned) [Example 70, 6-Methyl-N-(4-(2-methyl-1H-imidazol-1-yl)phenyl)-4-(1-phenylethyl)-5,6,7,8-tetrahydropyrido[4,3-d]pyrimidin-2-amine]
6.6 | Cc1nccn1-c1ccc(Nc2nc3c(c(C(C)c4ccccc4)n2)CN(C)CC3)cc1 (single isomer, unassigned) [Example 71, 6-Methyl-N-(4-(2-methyl-1H-imidazol-1-yl)phenyl)-4-(1-phenylethyl)-5,6,7,8-tetrahydropyrido[4,3-d]pyrimidin-2-amine]

same assay, conditions: Homo sapiens, SH-SY5Y, HEK or SH-SY5Y cells stably expressing APPswe, 4-6 hours incubation with test compound

IC50 | Compound
1000 nM | OCCN(c1ccccc1)c1nc(Nc2ccc(-c3cnco3)cc2)nc2c1CNCC2 [Example 1, 2-((2-(4-(Oxazol-5-yl)phenylamino)-5,6,7,8-tetrahydropyrido[4,3-d]pyrimidin-4-yl)(phenyl)amino)ethanol]
398 nM | CN1CCc2nc(Nc3ccc(-c4cnco4)cc3)nc(N(CCO)c3ccccc3)c2C1 [Example 2, 2-((6-Methyl-2-(4-(oxazol-5-yl)phenylamino)-5,6,7,8-tetrahydropyrido[4,3-d]pyrimidin-4-yl)(phenyl)amino)ethanol]
1000 nM | c1ccc(Nc2nc(Nc3ccc(-c4cnco4)cc3)nc3c2CNCC3)cc1 [Example 3, N2-(4-(Oxazol-5-yl)phenyl)-N4-phenyl-5,6,7,8-tetrahydropyrido[4,3-d]pyrimidine-2,4-diamine]
316 nM | CN1CCc2nc(Nc3ccc(-c4cnco4)cc3)nc(Nc3ccccc3)c2C1 [Example 4, 6-Methyl-N2-(4-(oxazol-5-yl)phenyl)-N4-phenyl-5,6,7,8-tetrahydropyrido[4,3-d]pyrimidine-2,4-diamine]
1000 nM | c1ccc(CNc2nc(Nc3ccc(-c4cnco4)cc3)nc3c2CCNC3)cc1 [Example 5, N4-Benzyl-N2-(4-(oxazol-5-yl)phenyl)-5,6,7,8-tetrahydropyrido[3,4-d]pyrimidine-2,4-diamine]
1260 nM | c1ccc(CNc2nc(Nc3ccc(-c4cnco4)cc3)nc3c2CNCC3)cc1 [Example 6, N4-Benzyl-N2-(4-(oxazol-5-yl)phenyl)-5,6,7,8-tetrahydropyrido[4,3-d]pyrimidine-2,4-diamine]
100 nM | COc1cc(Nc2nc3c(c(Nc4ccccc4)n2)CNCC3)ccc1-n1cnc(C)c1 [Example 7, N2-(3-Methoxy-4-(4-methyl-1H-imidazol-1-yl)phenyl)-N4-phenyl-5,6,7,8-tetrahydropyrido[4,3-d]pyrimidine-2,4-diamine]
79.4 nM | COc1cc(Nc2nc3c(c(Nc4ccccc4)n2)CN(CCO)CC3)ccc1-n1cnc(C)c1 [Example 8, 2-(2-(3-Methoxy-4-(4-methyl-1H-imidazol-1-yl)phenylamino)-4-(phenylamino)-7,8-dihydropyrido[4,3-d]pyrimidin-6(5H)-yl)ethanol]
1580 nM | Cc1nccn1-c1ccc(Nc2nc3c(c(N4c5ccccc5C[C@H]4CO)n2)CN(C)CC3)cc1 [Example 9, (S)-(1-(6-methyl-2-(4-(2-methyl-1H-imidazol-1-yl)phenylamino)-5,6,7,8-tetrahydropyrido[4,3-d]pyrimidin-4-yl)indolin-2-yl)methanol]
501 nM | Cc1nccn1-c1ccc(Nc2nc3c(c(N[C@@H]4CC5CCC4C5)n2)CN(C)CC3)cc1 (stereo partly drawn) [Example 10, N4-((2R)-bicyclo[2.2.1]heptan-2-yl)-6-methyl-N2-(4-(2-methyl-1H-imidazol-1-yl)phenyl)-5,6,7,8-tetrahydropyrido[4,3-d]pyrimidine-2,4-diamine]
398 nM | Cc1nccn1-c1ccc(Nc2nc3c(c(N(C)C4CCCCC4)n2)CN(C)CC3)cc1 [Example 11, N4-Cyclohexyl-N4,6-dimethyl-N2-(4-(2-methyl-1H-imidazol-1-yl)phenyl)-5,6,7,8-tetrahydropyrido[4,3-d]pyrimidine-2,4-diamine]
3980 nM | c1ccc(COc2nc(Nc3ccc(-c4cnco4)cc3)nc3c2CNCC3)cc1 [Example 12, 4-(Benzyloxy)-N-(4-(oxazol-5-yl)phenyl)-5,6,7,8-tetrahydropyrido[4,3-d]pyrimidin-2-amine]
3160 nM | Cc1nccn1-c1ccc(Nc2nc3c(c(N4c5ccccc5C[C@@H]4CO)n2)CN(C)CC3)cc1 [Example 13, (R)-(1-(6-Methyl-2-(4-(2-methyl-1H-imidazol-1-yl)phenylamino)-5,6,7,8-tetrahydropyrido[4,3-d]pyrimidin-4-yl)indolin-2-yl)methanol]
126 nM | CCCN1CCc2nc(Nc3ccc(-c4cnco4)cc3)nc(N(CCO)c3ccccc3)c2C1 [Example 14, 2-((2-(4-(Oxazol-5-yl)phenylamino)-6-propyl-5,6,7,8-tetrahydropyrido[4,3-d]pyrimidin-4-yl)(phenyl)amino)ethanol]
398 nM | CCC(=O)N1CCc2nc(Nc3ccc(-c4cnco4)cc3)nc(N(CCO)c3ccccc3)c2C1 [Example 15, 1-(4-((2-Hydroxyethyl)(phenyl)amino)-2-(4-(oxazol-5-yl)phenylamino)-7,8-dihydropyrido[4,3-d]pyrimidin-6(5H)-yl)propan-1-one]
631 nM | O=C(C1CC1)N1CCc2nc(Nc3ccc(-c4cnco4)cc3)nc(N(CCO)c3ccccc3)c2C1 [Example 16, Cyclopropyl(4-((2-hydroxyethyl)(phenyl)amino)-2-(4-(oxazol-5-yl)phenylamino)-7,8-dihydropyrido[4,3-d]pyrimidin-6(5H)-yl)methanone]
1580 nM | CN(C)CC(=O)N1CCc2nc(Nc3ccc(-c4cnco4)cc3)nc(N(CCO)c3ccccc3)c2C1 [Example 17, 2-(Dimethylamino)-1-(4-((2-hydroxyethyl)(phenyl)amino)-2-(4-(oxazol-5-yl)phenylamino)-7,8-dihydropyrido[4,3-d]pyrimidin-6(5H)-yl)ethanone]
2510 nM | COCC(=O)N1CCc2nc(Nc3ccc(-c4cnco4)cc3)nc(N(CCO)c3ccccc3)c2C1 [Example 18, 1-(4-((2-Hydroxyethyl)(phenyl)amino)-2-(4-(oxazol-5-yl)phenylamino)-7,8-dihydropyrido[4,3-d]pyrimidin-6(5H)-yl)-2-methoxyethanone]
794 nM | O=C(CO)N1CCc2nc(Nc3ccc(-c4cnco4)cc3)nc(N(CCO)c3ccccc3)c2C1 [Example 19, 2-Hydroxy-1-(4-((2-hydroxyethyl)(phenyl)amino)-2-(4-(oxazol-5-yl)phenylamino)-7,8-dihydropyrido[4,3-d]pyrimidin-6(5H)-yl)ethanone]
1000 nM | C[C@H](O)C(=O)N1CCc2nc(Nc3ccc(-c4cnco4)cc3)nc(N(CCO)c3ccccc3)c2C1 [Example 20, (S)-2-Hydroxy-1-(4-((2-hydroxyethyl)(phenyl)amino)-2-(4-(oxazol-5-yl)phenylamino)-7,8-dihydropyrido[4,3-d]pyrimidin-6(5H)-yl)propan-1-one]
1260 nM | CS(=O)(=O)N1CCc2nc(Nc3ccc(-c4cnco4)cc3)nc(N(CCO)c3ccccc3)c2C1 [Example 21, 2-((6-(Methylsulfonyl)-2-(4-(oxazol-5-yl)phenylamino)-5,6,7,8-tetrahydropyrido[4,3-d]pyrimidin-4-yl)(phenyl)amino)ethanol]
398 nM | CCS(=O)(=O)N1CCc2nc(Nc3ccc(-c4cnco4)cc3)nc(N(CCO)c3ccccc3)c2C1 [Example 22, 2-((6-(Ethylsulfonyl)-2-(4-(oxazol-5-yl)phenylamino)-5,6,7,8-tetrahydropyrido[4,3-d]pyrimidin-4-yl)(phenyl)amino)ethanol]
6310 nM | COC(=O)N1CCc2nc(Nc3ccc(-c4cnco4)cc3)nc(N(CCO)c3ccccc3)c2C1 [Example 23, Methyl 4-((2-hydroxyethyl)(phenyl)amino)-2-(4-(oxazol-5-yl)phenylamino)-7,8-dihydropyrido[4,3-d]pyrimidine-6(5H)-carboxylate]
251 nM | CCOC(=O)N1CCc2nc(Nc3ccc(-c4cnco4)cc3)nc(N(CCO)c3ccccc3)c2C1 [Example 24, Ethyl 4-((2-hydroxyethyl)(phenyl)amino)-2-(4-(oxazol-5-yl)phenylamino)-7,8-dihydropyrido[4,3-d]pyrimidine-6(5H)-carboxylate]
794 nM | CN(C)C(=O)N1CCc2nc(Nc3ccc(-c4cnco4)cc3)nc(N(CCO)c3ccccc3)c2C1 [Example 25, 4-((2-Hydroxyethyl)(phenyl)amino)-N,N-dimethyl-2-(4-(oxazol-5-yl)phenylamino)-7,8-dihydropyrido[4,3-d]pyrimidine-6(5H)-carboxamide]
126 nM | CC(=O)N1CCc2nc(Nc3ccc(-c4cnco4)cc3)nc(NC3CCCCC3)c2C1 [Example 26, 1-(4-(Cyclohexylamino)-2-(4-(oxazol-5-yl)phenylamino)-7,8-dihydropyrido[4,3-d]pyrimidin-6(5H)-yl)ethanone]
316 nM | CC(=O)N1CCc2nc(Nc3ccc(-c4cnco4)cc3)nc(NC[C@@H]3CCCO3)c2C1 [Example 27, (S)-1-(2-(4-(Oxazol-5-yl)phenylamino)-4-((tetrahydrofuran-2-yl)methylamino)-7,8-dihydropyrido[4,3-d]pyrimidin-6(5H)-yl)ethanone]
